Measurements from ChEMBL document CHEMBL1201862, “PubChem BioAssay data set” (2004).
Calls of active or inactive are those of the source.

Legend:
[1] = microbe, parasite or virus in culture; format: functional; conditions: Mycobacterium tuberculosis
[2] = molecular target: T1, Heat shock factor protein 1 (Mus musculus, UniProt P38532); experiment: HSF1 potentiators in luciferase reporter cells, confirmation, cell-based, NIH3T3, luminescence, dose retest (AID 435004); format: functional;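 further: stress induced by proteasome inhibitor MG132 added 30 min after compound; luciferase reporter driven by HSF1 response element in NIH3T3 cells; actives raise luminescence as potentiators of the MG132 stress response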
T1 sequence (P38532 whole entry): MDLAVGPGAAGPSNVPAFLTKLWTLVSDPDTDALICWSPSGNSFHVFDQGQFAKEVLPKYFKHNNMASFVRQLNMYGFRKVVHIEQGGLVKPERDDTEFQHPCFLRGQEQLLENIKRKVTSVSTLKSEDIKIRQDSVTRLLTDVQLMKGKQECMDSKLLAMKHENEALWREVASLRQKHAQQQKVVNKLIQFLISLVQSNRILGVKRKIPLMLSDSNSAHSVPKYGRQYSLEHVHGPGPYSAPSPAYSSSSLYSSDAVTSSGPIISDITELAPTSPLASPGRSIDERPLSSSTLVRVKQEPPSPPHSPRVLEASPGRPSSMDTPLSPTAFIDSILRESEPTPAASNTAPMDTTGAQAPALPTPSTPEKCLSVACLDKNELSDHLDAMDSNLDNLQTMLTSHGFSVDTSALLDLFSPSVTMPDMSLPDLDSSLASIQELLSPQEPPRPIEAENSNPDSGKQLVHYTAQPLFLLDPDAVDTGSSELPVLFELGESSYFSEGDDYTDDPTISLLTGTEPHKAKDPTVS

[3] = molecular target: T2, Short transient receptor potential channel 4 (Mus musculus, UniProt Q9QUQ5); experiment: mouse TRPC4 channel inhibitors, dose response, cell-based, HEK293 TRPC4/mu-opioid, Fluo-4 calcium (AID 434942); format: functional;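 further: potency of inhibitors blocking the TRPC4 calcium response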
T2 sequence (Q9QUQ5 whole entry): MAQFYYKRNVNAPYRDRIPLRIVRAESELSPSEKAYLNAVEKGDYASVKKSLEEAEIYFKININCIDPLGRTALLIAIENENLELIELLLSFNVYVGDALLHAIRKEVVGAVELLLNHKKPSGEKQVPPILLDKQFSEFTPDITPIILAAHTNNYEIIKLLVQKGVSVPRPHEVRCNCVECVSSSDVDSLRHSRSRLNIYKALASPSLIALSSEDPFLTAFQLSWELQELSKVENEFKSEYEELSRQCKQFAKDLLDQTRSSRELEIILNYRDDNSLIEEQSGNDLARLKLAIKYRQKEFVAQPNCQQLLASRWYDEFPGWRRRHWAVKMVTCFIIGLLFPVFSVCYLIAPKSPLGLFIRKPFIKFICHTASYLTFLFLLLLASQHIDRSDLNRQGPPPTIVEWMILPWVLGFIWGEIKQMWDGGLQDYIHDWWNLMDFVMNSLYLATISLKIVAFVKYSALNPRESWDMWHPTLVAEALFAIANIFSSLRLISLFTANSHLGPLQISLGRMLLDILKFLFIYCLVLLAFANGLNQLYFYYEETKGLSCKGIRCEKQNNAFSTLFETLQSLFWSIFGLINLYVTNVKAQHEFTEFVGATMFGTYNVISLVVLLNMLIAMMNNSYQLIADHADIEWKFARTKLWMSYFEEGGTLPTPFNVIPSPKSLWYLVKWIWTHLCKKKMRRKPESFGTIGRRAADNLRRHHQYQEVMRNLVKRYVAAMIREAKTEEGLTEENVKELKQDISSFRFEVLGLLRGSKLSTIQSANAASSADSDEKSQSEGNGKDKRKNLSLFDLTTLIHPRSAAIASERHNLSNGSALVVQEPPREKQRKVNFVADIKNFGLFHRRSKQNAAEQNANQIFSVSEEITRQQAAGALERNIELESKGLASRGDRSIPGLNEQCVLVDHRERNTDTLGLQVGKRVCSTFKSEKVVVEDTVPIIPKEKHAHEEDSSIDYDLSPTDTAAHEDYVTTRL

[4] = molecular target: T2, Short transient receptor potential channel 4; experiment: mouse TRPC4 channel activators, dose response, cell-based, HEK293 TRPC4/mu-opioid, Fluo-4 calcium (AID 434937); format: functional
cells [5] = format: functional
Large T antigen = Large T antigen (Simian virus 40, UniProt P03070); format: functional, Betapolyomavirus macacae;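 further: Confirmatory-stage PubChem screen for compounds that inhibit SV40 T antigen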
Streptococcus = experiment: Group A Streptococcus viability loss, dose response, counter-screen for streptokinase expression inhibitor project, luminescence, BacTiterGlo (AID 1915); format: functional, organism-based;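 further: potency for reduction of bacterial viability or growth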
Streptokinase A = molecular target: T3, Streptokinase A (Streptococcus pyogenes serotype M1, UniProt P10520); experiment: S. pyogenes streptokinase expression inhibitors, potency, dose response, plasminogen activation absorbance, OD405 (AID 1914); format: functional, Streptococcus pyogenes M1 GAS;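 further: secreted streptokinase activity via plasminogen activation per viability signal from cell pellet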
T3 sequence (P10520 whole entry): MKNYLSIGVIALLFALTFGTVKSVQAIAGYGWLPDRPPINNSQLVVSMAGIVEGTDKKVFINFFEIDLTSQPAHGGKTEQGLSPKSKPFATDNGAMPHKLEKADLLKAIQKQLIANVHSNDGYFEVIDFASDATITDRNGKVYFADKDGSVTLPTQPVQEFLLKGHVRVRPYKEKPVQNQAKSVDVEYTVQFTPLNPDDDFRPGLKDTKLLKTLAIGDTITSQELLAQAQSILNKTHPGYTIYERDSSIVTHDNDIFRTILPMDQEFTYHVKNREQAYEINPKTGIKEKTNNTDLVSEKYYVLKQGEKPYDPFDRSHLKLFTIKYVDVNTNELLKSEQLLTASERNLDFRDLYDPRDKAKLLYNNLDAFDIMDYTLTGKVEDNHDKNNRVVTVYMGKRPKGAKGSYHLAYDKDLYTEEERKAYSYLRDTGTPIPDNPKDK

[6] = system: Streptococcus sp. 'group A'; experiment: growth inhibition of control SK(-) GAS strain, dose response, counter-screen for streptokinase expression inhibitor project, luminescence, kanamycin, BacTiterGlo, confirmation (AID 1900); format: functional, organism-based
Estrogen receptor = molecular target: T4, Estrogen receptor (Homo sapiens, UniProt P03372);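 further: potency for inhibiting coactivator peptide recruitment to the receptor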
T4 sequence (P03372 whole entry): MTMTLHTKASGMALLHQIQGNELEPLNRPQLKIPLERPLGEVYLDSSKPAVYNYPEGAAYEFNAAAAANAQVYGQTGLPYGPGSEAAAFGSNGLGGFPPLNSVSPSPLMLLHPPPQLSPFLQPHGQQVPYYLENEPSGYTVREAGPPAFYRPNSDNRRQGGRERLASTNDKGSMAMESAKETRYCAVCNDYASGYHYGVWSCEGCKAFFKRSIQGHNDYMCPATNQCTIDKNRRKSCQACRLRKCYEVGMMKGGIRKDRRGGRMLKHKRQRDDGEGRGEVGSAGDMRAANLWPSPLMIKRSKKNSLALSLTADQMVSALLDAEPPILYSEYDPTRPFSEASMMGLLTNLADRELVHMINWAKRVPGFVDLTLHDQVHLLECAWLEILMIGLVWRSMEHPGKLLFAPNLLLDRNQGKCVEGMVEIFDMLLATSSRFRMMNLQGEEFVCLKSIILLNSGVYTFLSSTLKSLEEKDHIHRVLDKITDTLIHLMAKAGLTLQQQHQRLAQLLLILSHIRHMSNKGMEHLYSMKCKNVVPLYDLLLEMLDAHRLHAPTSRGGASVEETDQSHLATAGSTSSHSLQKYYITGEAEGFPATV

cells [7] = format: functional, cell-based
[8] = molecular target: T5, RNA-binding protein pos-1 (Caenorhabditis elegans, UniProt G5EF15); experiment: inhibitors of POS-1/mex-3 RNA binding, dose response, biochemical, fluorescence polarization (AID 1964);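 further: purified POS-1 fused to maltose binding protein made in E. coli; potency of compounds blocking POS-1 binding to fluorescent RNA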
T5 sequence (G5EF15 whole entry): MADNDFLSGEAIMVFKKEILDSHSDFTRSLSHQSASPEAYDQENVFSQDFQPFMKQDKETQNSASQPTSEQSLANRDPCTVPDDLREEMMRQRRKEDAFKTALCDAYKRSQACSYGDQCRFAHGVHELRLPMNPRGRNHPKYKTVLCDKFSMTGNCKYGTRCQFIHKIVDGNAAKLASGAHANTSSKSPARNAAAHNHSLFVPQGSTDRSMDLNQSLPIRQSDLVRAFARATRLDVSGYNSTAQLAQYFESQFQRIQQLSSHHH

cells [9] = format: functional, cell-based; remark: listed apart in the source
[10] = molecular target: T6, Zinc finger protein mex-5 (Caenorhabditis elegans, UniProt Q9XUB2); experiment: MEX-5/TCR-2 RNA interaction inhibitors, dose response, biochemical, C. elegans, fluorescence polarization (AID 1960)
T6 sequence (Q9XUB2 whole entry): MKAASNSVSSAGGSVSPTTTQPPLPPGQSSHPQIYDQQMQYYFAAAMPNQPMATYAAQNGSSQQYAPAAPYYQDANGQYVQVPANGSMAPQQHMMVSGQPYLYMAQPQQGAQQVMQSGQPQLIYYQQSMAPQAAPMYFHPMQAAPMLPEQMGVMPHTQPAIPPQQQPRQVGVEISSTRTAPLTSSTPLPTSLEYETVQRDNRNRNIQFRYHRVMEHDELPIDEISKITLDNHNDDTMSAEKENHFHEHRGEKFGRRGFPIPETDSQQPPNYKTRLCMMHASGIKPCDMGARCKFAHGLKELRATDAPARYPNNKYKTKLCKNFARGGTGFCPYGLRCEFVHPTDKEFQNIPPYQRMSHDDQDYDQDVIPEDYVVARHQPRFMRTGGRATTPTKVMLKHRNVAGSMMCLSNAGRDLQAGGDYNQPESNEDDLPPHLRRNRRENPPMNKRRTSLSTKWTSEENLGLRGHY

Chain of Large T antigen (P03070 whole entry): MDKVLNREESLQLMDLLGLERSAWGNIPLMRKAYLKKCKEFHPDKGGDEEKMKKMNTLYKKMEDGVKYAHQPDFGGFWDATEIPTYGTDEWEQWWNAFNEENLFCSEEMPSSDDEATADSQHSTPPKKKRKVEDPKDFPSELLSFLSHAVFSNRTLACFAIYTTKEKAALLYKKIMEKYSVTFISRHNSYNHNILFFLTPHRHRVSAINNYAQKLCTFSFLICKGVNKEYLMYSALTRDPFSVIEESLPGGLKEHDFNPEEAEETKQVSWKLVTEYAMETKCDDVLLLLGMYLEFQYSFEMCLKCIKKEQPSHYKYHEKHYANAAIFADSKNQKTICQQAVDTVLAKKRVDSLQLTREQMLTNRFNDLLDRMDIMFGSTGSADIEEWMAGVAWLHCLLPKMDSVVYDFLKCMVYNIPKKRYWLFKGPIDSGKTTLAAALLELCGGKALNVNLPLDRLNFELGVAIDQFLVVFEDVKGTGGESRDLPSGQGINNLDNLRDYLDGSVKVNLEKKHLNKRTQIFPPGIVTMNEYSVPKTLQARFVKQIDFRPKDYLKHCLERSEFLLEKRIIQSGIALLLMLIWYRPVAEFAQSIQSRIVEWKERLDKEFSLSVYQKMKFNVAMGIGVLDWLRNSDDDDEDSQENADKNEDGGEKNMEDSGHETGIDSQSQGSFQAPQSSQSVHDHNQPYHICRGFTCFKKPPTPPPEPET

Q: What does the source list for `CCc1ccc(NC(=O)CSc2nc3nnc(C)c-3c(N)n2-c2cccc(OC)c2)cc1`?
A: CC50 [1]: 22.6 µM (active); EC50 [2]: 118 µM (active)

Q: For `N#Cc1c(N)sc2c1CCCCCC2`, which EC50 [3] is on record?
A: 3.76 µM (active)

Q: With `CCCN(C(=O)CCOc1ccc(C(C)(C)C)cc1)c1c(N)n(Cc2ccccc2)c(=O)[nH]c1=O` as the compound, how does the CC50 [1] read?
A: > 40 µM (active)

Q: For `Cc1cccc(N(C(=O)c2snc(C(N)=O)c2N)C(C(=O)NCC2CCCO2)c2ccc3ncccc3c2)c1` (stereo unspecified), which EC50 [3] is on record?
A: 7.5 µM (active)

Q: For `CN1CCCC(OC(=O)c2cc(Cl)cc(Cl)c2)C1` (stereo unspecified), which EC50 [4] is on record?
A: 0.188 µM (active)

Q: With `O=C(COc1ccc(Br)cc1)Nc1ccc([N+](=O)[O-])cn1` as the compound, how does the IC50 (cells [5]) read?
A: 26.3 µM (active)

Q: With `CCOC(=O)c1c(NC(=O)C(C)Sc2nnc(C)c(O)n2)sc2c1CCCC2` (stereo unspecified) as the compound, how does the EC50 [3] read?
A: 0.237 µM (active)

Q: With `O=C(COC(=O)CCc1c[nH]c2ccccc12)NCc1ccc(Cl)cc1` as the compound, how does the IC50 (cells [5]) read?
A: 11.8 µM (active)

Q: Which EC50 [4] does the source give for `Cc1ccc(-c2nn(-c3cccc(F)c3)cc2CNCc2cccnc2)o1` here?
A: 2.66 µM (active)

Q: Which IC50 (Large T antigen) does the source give for `CC(Nc1ccc(N2CCOCC2)cc1)C(=O)N1c2ccccc2CC1C` (stereo unspecified) here?
A: 21.1 µM (active)

Q: For `CC1Cc2ccccc2N1C(=S)NC(=O)c1ccc(Cl)cc1Cl` (stereo unspecified), which CC50 [1] is on record?
A: 33 µM (active)

Q: And the EC50 (Streptococcus)?
A: 13.7 µM (active)

Q: And the EC50 (Streptokinase A)?
A: > 150 µM (not active)

Q: What about the EC50 [6] of the same compound?
A: 5.96 µM (active)

Q: For `CC1(C)CC(NC(=O)c2cc(COc3cccc(C(F)(F)F)c3)on2)CCO1` (stereo unspecified), which EC50 [3] is on record?
A: 1.88 µM (active)

Q: Which IC50 (Estrogen receptor) does the source give for `O=C(COC(=O)c1ccccc1Oc1ccccc1)NCc1ccco1` here?
A: 17.9 µM (active)

Q: Which results are given for `COc1ccc(-c2nnc(-c3cc4c(ccc5ccccc54)oc3=O)o2)cc1`?
A: EC50 (cells [7]): > 350 µM (not active); EC50 [8]: > 300 µM (not active); EC50 (cells [9]): > 350 µM (not active); EC50 [10]: > 300 µM (inconclusive); IC50 (Estrogen receptor): 20 µM (active)

Q: Which IC50 (Large T antigen) does the source give for `COc1cc(Cl)ccc1NC(=O)COc1ccccc1C(=O)N1CCN(c2ccc(O)cc2)CC1` here?
A: 13.4 µM (active)

Q: For `CN1CCC(=O)N([C@H](CSc2ccc(Br)cc2)Cc2ccccc2)CC1`, which EC50 [4] is on record?
A: 4.73 µM (active)

Q: For `COc1ccc(OC)c(N2Cc3ccccc3C2=N)c1`, which EC50 [3] is on record?
A: 3.35 µM (active)

Q: Which EC50 [4] does the source give for `CN(C)C(CN=C(S)Nc1ccc(Cl)cc1)c1cccnc1` (stereo unspecified) here?
A: 0.0147 µM (active)

Q: For `O=C1NCC(O)=C1/C=N/c1ccccc1O`, which IC50 (cells [5]) is on record?
A: 4.46 µM (active)

Q: What about the CC50 [1] of the same compound?
A: > 40 µM (active)

Q: Which IC50 (Estrogen receptor) does the source give for `COCCNC(=O)c1c(N)n(/N=C/c2cccs2)c2nc3ccccc3nc12` here?
A: 11.2 µM (active)

Q: Which IC50 (Large T antigen) does the source give for `CCOc1cc(/C=N\NC(=O)Cn2nnc3ccccc32)ccc1O` here?
A: 13.1 µM (active)

Q: For `O=C(/C=C/c1ccc(O)c(O)c1)O[C@@H]1C[C@](O)(C(=O)O)C[C@@H](O)[C@H]1O` [CHLOROGENIC ACID], which IC50 (Large T antigen) is on record?
A: 14.7 µM (active)
